Results taken from ChEMBL document CHEMBL4842376, “Design, synthesis and biological evaluation of novel hybrids targeting mTOR and HDACs for potential treatment of hepatocellular carcinoma” (Eur J Med Chem, 2021).

Experiments:
[1] = tested on: HeLa; assay: cells; format: functional, cell-based; details: Homo sapiens, 72 h
Description: Antiproliferative activity against human HeLa cells assessed as inhibition of cell growth measured after 72 hrs by MTT assay

[2] = tested on: HepG2; assay: Antiproliferative activity against human HepG2 cells assessed as inhibition of cell growth measured after 72 hrs by MTT assay; format: functional, cell-based; details: HepG2, 72 h
[3] = tested on: SNU-423; assay: Antiproliferative activity against human SNU-423 cells assessed as inhibition of cell growth measured after 72 hrs by MTT assay; format: functional, cell-based; details: SNU-423, 72 h
[4] = target: T1, Protein deacetylase HDAC6 (Homo sapiens) (UniProt Q9UBN7); assay: Inhibition of HDAC6 (unknown origin) at 1 uM using Ac-peptide as a substrate pretreated for 15 mins followed by substrate addition relative to control
T1 sequence (whole entry): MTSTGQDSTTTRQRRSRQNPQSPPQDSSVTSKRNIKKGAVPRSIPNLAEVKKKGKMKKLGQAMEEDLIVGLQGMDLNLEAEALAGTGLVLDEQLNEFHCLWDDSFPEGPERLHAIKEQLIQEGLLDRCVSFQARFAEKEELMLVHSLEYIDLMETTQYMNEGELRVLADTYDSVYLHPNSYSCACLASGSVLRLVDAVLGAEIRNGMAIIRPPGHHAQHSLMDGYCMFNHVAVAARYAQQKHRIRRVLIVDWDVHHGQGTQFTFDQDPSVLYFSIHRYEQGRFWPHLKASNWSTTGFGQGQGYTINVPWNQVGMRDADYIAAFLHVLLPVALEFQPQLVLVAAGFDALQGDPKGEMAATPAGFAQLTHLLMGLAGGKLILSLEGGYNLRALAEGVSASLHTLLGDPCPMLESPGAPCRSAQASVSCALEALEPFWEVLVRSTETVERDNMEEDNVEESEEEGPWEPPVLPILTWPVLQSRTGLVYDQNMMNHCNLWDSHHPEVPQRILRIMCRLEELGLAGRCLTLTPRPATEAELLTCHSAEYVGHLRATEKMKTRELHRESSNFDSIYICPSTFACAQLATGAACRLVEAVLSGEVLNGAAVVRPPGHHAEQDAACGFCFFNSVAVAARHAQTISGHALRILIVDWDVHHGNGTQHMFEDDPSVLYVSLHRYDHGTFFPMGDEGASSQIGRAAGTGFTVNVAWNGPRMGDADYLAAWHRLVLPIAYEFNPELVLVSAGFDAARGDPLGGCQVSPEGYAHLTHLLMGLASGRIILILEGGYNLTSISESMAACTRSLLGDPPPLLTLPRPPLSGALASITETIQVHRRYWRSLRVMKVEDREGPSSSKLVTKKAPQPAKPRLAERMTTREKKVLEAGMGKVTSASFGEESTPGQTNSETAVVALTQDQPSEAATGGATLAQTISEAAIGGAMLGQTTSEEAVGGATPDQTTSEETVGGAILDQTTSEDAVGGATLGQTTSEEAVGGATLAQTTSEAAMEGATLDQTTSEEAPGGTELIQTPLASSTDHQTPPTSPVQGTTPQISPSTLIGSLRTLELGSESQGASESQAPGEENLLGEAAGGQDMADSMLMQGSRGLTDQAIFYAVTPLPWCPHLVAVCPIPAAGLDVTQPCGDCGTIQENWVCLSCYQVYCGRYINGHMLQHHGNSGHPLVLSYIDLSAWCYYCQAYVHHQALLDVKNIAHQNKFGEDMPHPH

[5] = tested on: Hep 3B2; assay: cells; format: functional, cell-based; details: Homo sapiens, Hep3B, 72 h
Description: Antiproliferative activity against human Hep3B cells assessed as inhibition of cell growth measured after 72 hrs by MTT assay

[6] = tested on: MDA-MB-231; assay: cells; format: functional, cell-based; details: Homo sapiens, MDA-MB-231, 72 h
Description: Antiproliferative activity against human MDA-MB-231 cells assessed as inhibition of cell growth measured after 72 hrs by MTT assay

[7] = target: Serine/threonine-protein kinase mTOR (Homo sapiens, UniProt P42345); assay: Inhibition of mTOR (unknown origin) at 1 uM using U-Light-4E-BP1 peptide as a substrate in the presence of ATP incubated for 30 mins by Lance ultra assay relative to control
[8] = tested on: Bel-7402; assay: Antiproliferative activity against human Bel-7402 cells assessed as inhibition of cell growth measured after 72 hrs by MTT assay; format: functional, cell-based; details: Bel-7402, 72 h
[9] = tested on: HCT-116; assay: cells; format: functional, cell-based; details: Homo sapiens, HCT-116, 72 h
Description: Antiproliferative activity against human HCT-116 cells assessed as inhibition of cell growth measured after 72 hrs by MTT assay

[10] = tested on: A549; assay: cells; format: functional, cell-based; details: Homo sapiens, A549, 72 h
Description: Antiproliferative activity against human A549 cells assessed as inhibition of cell growth measured after 72 hrs by MTT assay

[11] = tested on: Huh-7; assay: cells; format: functional, cell-based; details: Homo sapiens, Huh-7, 72 h
Description: Antiproliferative activity against human Huh-7 cells assessed as inhibition of cell growth measured after 72 hrs by MTT assay

[12] = tested on: MCF7; assay: cells; format: functional, cell-based; details: Homo sapiens, MCF7, 72 h
Description: Antiproliferative activity against human MCF7 cells assessed as inhibition of cell growth measured after 72 hrs by MTT assay

[13] = tested on: PLC-PRF-5; assay: Antiproliferative activity against human PLC-PRF-5 cells assessed as inhibition of cell growth measured after 72 hrs by MTT assay; format: functional, cell-based; details: PLC-PRF-5, 72 h
[14] = tested on: SK-HEP1; assay: cells; format: functional, cell-based; details: Homo sapiens, SK-HEP1, 72 h
Description: Antiproliferative activity against human SK-HEP1 cells assessed as inhibition of cell growth measured after 72 hrs by MTT assay

[15] = tested on: CNE-2; assay: cells; format: functional, cell-based; details: Homo sapiens, CNE-2, 72 h
Description: Antiproliferative activity against human CNE-2 cells assessed as inhibition of cell growth measured after 72 hrs by MTT assay

[16] = Metabolic stability in rat liver microsomes assessed as parent compound remaining at 10 ug/ml measured after 1 hr in the presence of NADPH by HPLC analysis; format: ADME, Microsome; details: microsomes, 1 h, at 10 µg/mL
[17] = tested on: L02; assay: cells; format: ADME, cell-based; details: Homo sapiens, L02, 72 h
Description: Cytotoxicity against human L02 cells assessed as reduction in cell viability measured after 72 hrs by MTT assay

IC50 [1] [µM]	IC50 [2] [µM]	IC50 [3] [µM]	inhibition [4] [%]	IC50 [5] [µM]	IC50 [6] [µM]	inhibition [7] [%]	IC50 [8] [µM]	IC50 [9] [µM]	IC50 [10] [µM]	IC50 [11] [µM]	IC50 [12] [µM]	IC50 [14] [µM]	IC50 [15] [µM]	Stabilty [16]	Structure (SMILES)	IC50 [13] [µM]	IC50 [17] [µM]
> 50	28.6	> 50	98.2	28.8	> 50	92.4	> 50	23.1	> 50	41.2	> 50	14.1	36.8		Nc1nc2cc(-c3nn(CCCCCCCCCC(=O)NO)c4ncnc(N)c34)ccc2o1	> 100	
32.2	2.1	3.03	95.1	33.7	21.2	99.4	2.4	34	> 100	9.22	14	6.4	> 50		Nc1nc2cc(-c3nn(CCCCC(=O)NO)c4ncnc(N)c34)ccc2o1	29.6	
> 150	> 150				> 50			> 100	> 150		> 100		> 150		Nc1nc2cc(-c3nn(CCC(=O)NO)c4ncnc(N)c34)ccc2o1		
10.2	2.61	4.94	99	8.89	30.3	99.3	> 100	2.98	13.2	1.47	42.1	> 100	3.24		Nc1nc2cc(-c3nn(CCCCCCCCC(=O)NO)c4ncnc(N)c34)ccc2o1	24	
	> 50				> 150			> 150	> 150		> 150		> 150		Nc1ncnc2c1c(-c1cnc3[nH]ccc3c1)nn2CCCC(=O)NO		
		0.079					27.4							Stable	O=C(CCCCCCC(=O)Nc1ccccc1)NO [VORINOSTAT]	2.22	

The remaining lines, values behind:

Structure (SMILES)	IC50 [1] [µM]	IC50 [2] [µM]	IC50 [3] [µM]	inhibition [4] [%]	IC50 [5] [µM]	IC50 [6] [µM]	inhibition [7] [%]	IC50 [8] [µM]	IC50 [9] [µM]	IC50 [10] [µM]	IC50 [11] [µM]	IC50 [12] [µM]	IC50 [14] [µM]	IC50 [15] [µM]	Stabilty [16]	IC50 [13] [µM]	IC50 [17] [µM]
Nc1ncnc2c1c(-c1cnc3[nH]ccc3c1)nn2CCCCCCCCCC(=O)NO	7.56	11.7	8.16	98.3	17.2	10.1	97.6	42.1	18.7	6.55	10.1	23.2	23.5	2.2		34.2	
Nc1nc2cc(-c3nn(CC(=O)NO)c4ncnc(N)c34)ccc2o1	> 150	> 150				6.31			11.4	27.7		> 100		12.2			
Nc1nc2cc(-c3nn(CCCC(=O)NO)c4ncnc(N)c34)ccc2o1	> 150	> 50				19.5			19.6	> 100		> 50		> 50			
Nc1ncnc2c1c(-c1cnc3[nH]ccc3c1)nn2CC(=O)NO		> 150				> 150			> 150	> 150		> 150		> 150			
Nc1nc2cc(-c3nn(CCCCCC(=O)NO)c4ncnc(N)c34)ccc2o1	15.4	1.99	12.6	97.8	34.2	19	100	2.03	21.5	> 100	9.91	12.4	3.08	37.6		> 50	
Nc1ncnc2c1c(-c1cnc3[nH]ccc3c1)nn2CCCCCC(=O)NO	> 150	12.9			> 50	> 100			63.7	> 150	> 100	> 150	> 150	> 50		> 150	
Nc1ncnc2c1c(-c1cnc3[nH]ccc3c1)nn2CCCCCCCC(=O)NO	29.1	5.63	5.4	100	16.3	15.8	98.7	17.4	6.76	51	23.5	7.57	3.95	8.99		35.9	
Nc1ncnc2c1c(-c1cnc3[nH]ccc3c1)nn2CCC(=O)NO		> 150				> 150			> 150	> 150		> 150		> 150			
Nc1ncnc2c1c(-c1cnc3[nH]ccc3c1)nn2CCCCCCC(=O)NO	22	10.3	7.5	99.1	26.2	37.7	98.7	30.8	9.86	50	50.9	19.8	14.7	19.5		> 50	
Nc1ncnc2c1c(-c1cnc3[nH]ccc3c1)nn2CCCCC(=O)NO	> 150	36.6				> 50			> 150	> 150		> 150		> 150			
CC(C)n1nc(-c2ccc3oc(N)nc3c2)c2c(N)ncnc21 [SAPANISERTIB]	0.036	2.13	0.015		4.43	0.031		> 100	0.048	0.174	0.007	0.053	0.008	0.101	Stable	6.63	0.28
